Assay results: the supplement of paper PMC10307832

Experiments:
Assay in all cases: relative viability (nuclei count vs DMSO), 5 days (fraction); higher = more cells survive
[1] = compound: O=C(O)c1ccc2c(c1)nc(Nc1cccc(Cl)c1)c1ccncc12 [Silmitasertib] + C[C@]1(O)C[C@@H](c2nc(-c3ccc4ccc(-c5ccccc5)nc4c3)c3c(N)nccn32)C1 [Linsitinib] (partner 1 µM)
Outline: (§1)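 Medians of duplicate plates are given as relative viability. That measure is the nuclei count in treated wells divided by the count in vehicle wells. Counts were taken on 4× images of lung cancer cell lines in 1536-well plates, 5 days after pin-tool dosing the day after seeding with one drug alone or a fixed anchor-drug dose plus five library-drug doses (not always all listed) in √10 steps.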

[2] = compound: O=C(O)c1ccc2c(c1)nc(Nc1cccc(Cl)c1)c1ccncc12 [Silmitasertib] + Cc1nc(Nc2ncc(C(=O)Nc3c(C)cccc3Cl)s2)cc(N2CCN(CCO)CC2)n1 [Dasatinib] (partner 0.075 µM)
Outline: as §1

[3] = compound: O=C(O)c1ccc2c(c1)nc(Nc1cccc(Cl)c1)c1ccncc12 [Silmitasertib] + C[C@@H](Oc1cc(-c2cnn(C3CCNCC3)c2)cnc1N)c1c(Cl)ccc(F)c1Cl [Crizotinib] (partner 1 µM)
Outline: as §1

[4] = compound: O=C(O)c1ccc2c(c1)nc(Nc1cccc(Cl)c1)c1ccncc12 [Silmitasertib] + Nc1nc2[nH]cc(CCc3ccc(C(=O)N[C@@H](CCC(=O)O)C(=O)O)cc3)c2c(=O)[nH]1 [Pemetrexed] (partner 0.2 µM)
Outline: as §1

[5] = compound: O=C(O)c1ccc2c(c1)nc(Nc1cccc(Cl)c1)c1ccncc12 [Silmitasertib] + COc1cc2c(Oc3ccc(NC(=O)C4(C(=O)Nc5ccc(F)cc5)CC4)cc3F)ccnc2cc1OCCCN1CCOCC1 [Foretinib] (partner 0.25 µM)
Outline: as §1

[6] = compound: O=C(O)c1ccc2c(c1)nc(Nc1cccc(Cl)c1)c1ccncc12 [Silmitasertib] + Cc1nc(NC(=O)N2CCC[C@H]2C(N)=O)sc1-c1ccnc(C(C)(C)C(F)(F)F)c1 [Alpelisib] (partner 2 µM)
Outline: as §1

[7] = compound: O=C(O)c1ccc2c(c1)nc(Nc1cccc(Cl)c1)c1ccncc12 [Silmitasertib] + CS(=O)(=O)N1CCN(Cc2cc3nc(-c4cccc5[nH]ncc45)nc(N4CCOCC4)c3s2)CC1 [Pictilisib] (partner 1 µM)
Outline: as §1

[8] = compound: O=C(O)c1ccc2c(c1)nc(Nc1cccc(Cl)c1)c1ccncc12 [Silmitasertib] + CCNC(=O)c1noc(-c2cc(C(C)C)c(O)cc2O)c1-c1ccc(CN2CCOCC2)cc1 [Luminespib] (partner 0.01 µM)
Outline: as §1

[9] = compound: O=C(O)c1ccc2c(c1)nc(Nc1cccc(Cl)c1)c1ccncc12 [Silmitasertib] + CC(C)C[C@H](NC(=O)[C@H](Cc1ccccc1)NC(=O)c1cnccn1)B(O)O [Bortezomib] (partner 0.002 µM)
Outline: as §1

[10] = compound: O=C(O)c1ccc2c(c1)nc(Nc1cccc(Cl)c1)c1ccncc12 [Silmitasertib] + CS(=O)(=O)CCNCc1ccc(-c2ccc3ncnc(Nc4ccc(OCc5cccc(F)c5)c(Cl)c4)c3c2)o1 [Lapatinib] (partner 2 µM)
Outline: as §1

Silmitasertib + OSI-027 = compound: O=C(O)c1ccc2c(c1)nc(Nc1cccc(Cl)c1)c1ccncc12 [Silmitasertib] + COc1cccc2cc(-c3nc([C@H]4CC[C@H](C(=O)O)CC4)n4ncnc(N)c34)[nH]c12 [OSI-027] (partner 0.5 µM)
Outline: as §1

[11] = compound: O=C(O)c1ccc2c(c1)nc(Nc1cccc(Cl)c1)c1ccncc12 [Silmitasertib] + N=C(N)NC(=N)NCCc1ccccc1 [Phenformin] (partner 250 µM)
Outline: as §1

Silmitasertib = compound: O=C(O)c1ccc2c(c1)nc(Nc1cccc(Cl)c1)c1ccncc12 [Silmitasertib]
Outline: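 A plate was accepted only when its control CV was below 25% and the cells had doubled at least once. Viability is defined from nuclear counts as treated wells divided by vehicle wells, with the median taken across plates. That median covers lung cancer cell lines grown in 1536-well plates, dosed by pinning at five √10-spaced library-drug concentrations, and counted in MetaXpress from 4× Hoechst images after 5 days.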

With NCI-H1563 the relative viability ([1]; first compound 0.04 µM) was 1.32, the relative viability ([1]; first compound 0.4 µM) was 1.22 and the relative viability ([1]; first compound 1.265 µM) was 1.17. For the same cell line, the relative viability ([1]; first compound 4 µM) was 1.16, the relative viability ([2]; first compound 0.04 µM) was 0.493 and the relative viability ([2]; first compound 0.4 µM) was 0.486. The relative viability ([2]; first compound 4 µM) was 0.431, the relative viability ([3]; first compound 0.04 µM) was 0.88 and the relative viability ([3]; first compound 0.4 µM) was 0.822. It also gave a relative viability ([3]; first compound 1.265 µM) of 0.856, a relative viability ([3]; first compound 4 µM) of 0.857 and a relative viability ([4]; first compound 0.04 µM) of 0.871. It also gave a relative viability ([4]; first compound 0.4 µM) of 0.844, a relative viability ([4]; first compound 4 µM) of 0.693 and a relative viability ([5]; first compound 0.04 µM) of 0.96. For the same cell line, the relative viability ([5]; first compound 0.4 µM) was 0.952, the relative viability ([5]; first compound 1.265 µM) was 0.879 and the relative viability ([5]; first compound 4 µM) was 0.974. It also gave a relative viability ([6]; first compound 0.04 µM) of 0.922, a relative viability ([6]; first compound 0.4 µM) of 0.734 and a relative viability ([6]; first compound 1.265 µM) of 0.923. The relative viability ([6]; first compound 4 µM) was 0.92, the relative viability ([7]; first compound 0.04 µM) was 0.62 and the relative viability ([7]; first compound 0.4 µM) was 0.679. For the same cell line, the relative viability ([7]; first compound 1.265 µM) was 0.68, the relative viability ([7]; first compound 4 µM) was 0.578 and the relative viability ([8]; first compound 0.04 µM) was 0.56. The relative viability ([8]; first compound 0.4 µM) was 0.486, the relative viability ([8]; first compound 4 µM) was 0.521 and the relative viability ([9]; first compound 0.04 µM) was 0.932. It also gave a relative viability ([9]; first compound 0.4 µM) of 0.903, a relative viability ([9]; first compound 1.265 µM) of 0.844 and a relative viability ([9]; first compound 4 µM) of 0.821. For the same cell line, the relative viability ([10]; first compound 0.04 µM) was 1.13, the relative viability ([10]; first compound 0.4 µM) was 0.925 and the relative viability ([10]; first compound 1.265 µM) was 0.909. The relative viability ([10]; first compound 4 µM) was 0.877, the relative viability (Silmitasertib + OSI-027; first compound 0.04 µM) was 0.773 and the relative viability (Silmitasertib + OSI-027; first compound 0.4 µM) was 0.773. For the same cell line, the relative viability (Silmitasertib + OSI-027; first compound 1.265 µM) was 0.779, the relative viability (Silmitasertib + OSI-027; first compound 4 µM) was 0.681 and the relative viability ([11]; first compound 0.04 µM) was 0.711. The relative viability ([11]; first compound 0.4 µM) was 0.714, the relative viability ([11]; first compound 1.265 µM) was 0.655 and the relative viability ([11]; first compound 4 µM) was 0.627. It also gave a relative viability (Silmitasertib; 0.04 µM) of 0.989, a relative viability (Silmitasertib; 0.4 µM) of 1.03 and a relative viability (Silmitasertib; 1.265 µM) of 0.887. For the same cell line, the relative viability (Silmitasertib; 4 µM) was 0.903.
